Laboratory results from PMC9911596 (Nature Communications, 2023).
Numbering of substitutions follows the chain as printed.

Columns and labels:
[1] = target: T1, Vtc1/Vtc3/Vtc4 complex (VTC complex) (Saccharomyces cerevisiae, UniProt P47075+Q02725, Q02725:K333A/Q02725:K362A/Q02725:K364A/Q02725:Y380F); assay: polyP synthesis, TBE-PAGE; type: biochemical; conditions: activator; 15 mM ATP, 10 mM MgCl2, 1 mM MnCl2, 0.5 mM pyrophosphate, 27 °C; TTM cleft (second site) mutant
T1 construct: full-length subunits co-expressed in Expi293F; Vtc1 C-terminal HA, Vtc3 N-terminal 3xFlag, Vtc4 C-terminal 2xStrep; detergent-purified; 3:1:1 pentamer; with Vacuolar transporter chaperone complex subunit 1
T1 sequence (P47075 1-721): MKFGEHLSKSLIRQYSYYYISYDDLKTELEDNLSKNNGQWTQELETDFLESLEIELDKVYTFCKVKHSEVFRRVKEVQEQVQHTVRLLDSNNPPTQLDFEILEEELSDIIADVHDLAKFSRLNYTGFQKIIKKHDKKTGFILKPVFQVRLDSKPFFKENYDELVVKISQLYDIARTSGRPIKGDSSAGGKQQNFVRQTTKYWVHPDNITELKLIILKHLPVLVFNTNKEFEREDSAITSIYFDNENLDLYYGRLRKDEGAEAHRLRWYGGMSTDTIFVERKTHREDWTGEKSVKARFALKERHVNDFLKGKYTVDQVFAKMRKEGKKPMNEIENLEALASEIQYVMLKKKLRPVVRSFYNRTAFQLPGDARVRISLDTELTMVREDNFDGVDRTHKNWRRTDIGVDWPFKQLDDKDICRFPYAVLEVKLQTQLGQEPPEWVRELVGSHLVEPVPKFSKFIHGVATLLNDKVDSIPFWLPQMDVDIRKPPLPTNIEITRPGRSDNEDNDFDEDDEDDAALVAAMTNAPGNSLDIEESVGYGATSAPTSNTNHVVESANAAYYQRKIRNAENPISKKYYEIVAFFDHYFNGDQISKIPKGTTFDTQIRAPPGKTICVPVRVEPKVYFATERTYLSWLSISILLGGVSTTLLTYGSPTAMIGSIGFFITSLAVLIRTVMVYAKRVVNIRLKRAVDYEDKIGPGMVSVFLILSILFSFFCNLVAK
T1 sequence (Q02725 1-835 K333A/K362A/K364A/Y380F): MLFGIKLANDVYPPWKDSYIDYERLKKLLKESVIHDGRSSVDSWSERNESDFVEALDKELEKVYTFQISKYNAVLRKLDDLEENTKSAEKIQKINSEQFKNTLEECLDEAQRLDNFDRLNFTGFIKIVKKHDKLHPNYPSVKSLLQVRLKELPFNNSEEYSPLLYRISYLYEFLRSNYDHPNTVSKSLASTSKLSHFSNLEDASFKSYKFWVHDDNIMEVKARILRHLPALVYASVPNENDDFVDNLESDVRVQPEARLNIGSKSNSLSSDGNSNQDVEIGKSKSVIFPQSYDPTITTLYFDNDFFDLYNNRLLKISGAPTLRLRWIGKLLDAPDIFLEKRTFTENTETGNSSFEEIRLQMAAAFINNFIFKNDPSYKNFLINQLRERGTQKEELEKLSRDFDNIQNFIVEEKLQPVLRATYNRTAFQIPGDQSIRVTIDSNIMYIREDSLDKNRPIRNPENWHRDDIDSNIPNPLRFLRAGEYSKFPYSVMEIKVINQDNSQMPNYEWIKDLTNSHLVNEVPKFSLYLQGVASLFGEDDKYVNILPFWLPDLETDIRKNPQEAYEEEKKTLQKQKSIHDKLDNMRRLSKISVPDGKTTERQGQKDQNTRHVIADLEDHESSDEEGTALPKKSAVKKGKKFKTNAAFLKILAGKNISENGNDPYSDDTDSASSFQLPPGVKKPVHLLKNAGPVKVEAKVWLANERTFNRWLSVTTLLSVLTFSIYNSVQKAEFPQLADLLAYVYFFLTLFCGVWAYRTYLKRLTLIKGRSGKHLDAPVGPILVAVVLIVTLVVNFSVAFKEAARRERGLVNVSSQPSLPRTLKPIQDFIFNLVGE
T1 sequence (P40046 2-129 partner): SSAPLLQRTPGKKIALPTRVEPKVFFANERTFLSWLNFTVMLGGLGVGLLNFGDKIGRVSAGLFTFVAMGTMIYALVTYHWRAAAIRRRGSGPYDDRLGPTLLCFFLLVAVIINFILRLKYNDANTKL

[2] = target: T2, Vtc1/Vtc3/Vtc4 complex (VTC complex) (Saccharomyces cerevisiae, UniProt P47075+Q02725, Q02725:K126A/Q02725:K129A/Q02725:K133A); assay: polyP synthesis, TBE-PAGE; type: biochemical; conditions: activator; 15 mM ATP, 10 mM MgCl2, 1 mM MnCl2, 0.5 mM pyrophosphate, 27 °C, 4 h; SPX KSC mutant
T2 construct: full-length subunits co-expressed in Expi293F; Vtc1 C-terminal HA, Vtc3 N-terminal 3xFlag, Vtc4 C-terminal 2xStrep; detergent-purified; 3:1:1 pentamer; with Vacuolar transporter chaperone complex subunit 1
T2 sequence (P47075 1-721): T1 sequence (P47075 1-721)
T2 sequence (Q02725 1-835 K126A/K129A/K133A): T1 sequence (Q02725 1-835 K333A/K362A/K364A/Y380F) with K126A, K129A, K133A, A333K, A362K, A364K, F380Y
T2 sequence (P40046 2-129 partner): T1 sequence (P40046 2-129 partner)

O=P(O)(O)O[C@H]1[C@H](OP(=O)(O)O)[C@@H](OP(=O)(O)O)[C@H](OP(=O)(O)O)[C@@H](OP(=O)(O)O)[C@H]1OP(=O)(O)O [InsP6]
polyP synthesis, TBE-PAGE [1]: had little impact on InsP6-stimulated polyP synthesis by VTC complex | polyP synthesis, TBE-PAGE [2]: residues had little effect on polyP synthesis
